Measured values reported in publication PMC9241943, “LcCCL28-25, Derived from Piscine Chemokine, Exhibits Antimicrobial Activity against Gram-Negative and Gram-Positive Bacteria In Vitro and In Vivo” (Microbiology Spectrum, 2022).
Values after ≈ are worked out from the molar mass of the structure shown. Structures can show the parent of a compound that is named as a salt. Residues, ends and D or L forms follow the SMILES beside them.

How the values were obtained:
P. aeruginosa FRD1 = format: cell-based, Pseudomonas aeruginosa; conditions: FRD1, 2 h
Experimental: (§1) The MIC assays were performed as previously described ([43]). Briefly, peptides were plated in a 2-fold dilution series (50 μL/well) of Mueller-Hinton broth (MHB) in Costar 96-well cell culture plates (Corning, NY, USA). Three repeats were set for each concentration. E. coli ATCC 25922, A. hydrophila ATCC 7966, P. aeruginosa PAO1, P. aeruginosa FRD1, S. aureus ATCC 25923, S. agalactiae ATCC 13813, S. pneumoniae ATCC 49619, methicillin-resistant S. aureus ATCC 43300, and methicillin-resistant S. aureus USA300 were cultured in Luria-Bertani (LB) medium, while K. pneumoniae CMCC46117 was cultured in tryptic soy broth (TSB) medium. Incubation was done at 37°C and 150 × g for 12 h. Bacteria were transferred to fresh MHB at a ratio of 1% (vol/vol) and incubated to reach a logarithmic growth phase. Then, 50 μL of a bacterial suspension at 4 × 10^6 CFU/mL was added to each well. […]

[1] = tested on: Aeromonas hydrophila ATCC 7966; format: cell-based; conditions: ATCC 7966, 2 h
Experimental: as §1

[2] = tested on: Escherichia coli ATCC 25922; format: cell-based; conditions: ATCC 25922, 2 h
Experimental: as §1

[3] = tested on: Klebsiella pneumoniae CMCC46117; format: cell-based; conditions: CMCC46117, 2 h
Experimental: as §1

[4] = tested on: Pseudomonas aeruginosa PAO1; format: cell-based; conditions: PAO1, 2 h
Experimental: as §1

[5] = tested on: Staphylococcus aureus ATCC 25923; format: cell-based; conditions: ATCC 25923, 2 h
Experimental: as §1

[6] = tested on: Streptococcus agalactiae ATCC 13813; format: cell-based; conditions: ATCC 13813, 2 h
Experimental: as §1

[7] = tested on: Streptococcus pneumoniae ATCC 49619; format: cell-based; conditions: ATCC 49619, 2 h
Experimental: as §1

[8] = tested on: Methicillin-resistant S. aureus ATCC 43300; format: cell-based, Staphylococcus aureus; conditions: ATCC 43300, 2 h
Experimental: as §1

[9] = tested on: Methicillin-resistant S. aureus USA300; format: cell-based, Staphylococcus aureus; conditions: USA300, 2 h
Experimental: as §1

E. coli ATCC 25922 = assay: SYTOX green membrane permeability assay; format: cell-based, Escherichia coli; conditions: E. coli ATCC 25922, 5 μM SYTOX green, read every 1 min
Experimental: The SYTOX green staining assay was performed to assess peptide-associated membrane damage ([47], [52]). E. coli ATCC 25922 and S. aureus ATCC 25923 cells in the mid-logarithmic phase were collected, washed thrice, and resuspended (5 × 10^7 CFU/mL) in buffer B (10 mM Tris-HCl, pH 7.4, at 25°C). The bacterial suspensions were mixed with 5 μM SYTOX green and incubated for 15 min at room temperature in the dark. Then, the mixtures were added to black, clear-bottom 96-well plates at a density of 100 μL/well. After peptide addition, SYTOX green uptake was monitored using an EnSpire multimode plate reader (PerkinElmer, Singapore) with an excitation wavelength of 485 nm and an emission wavelength of 520 nm. Each measurement interval was 1 min, totaling 30 to 60 times. Melittin was used as the positive control, while bovine serum albumin (BSA) was the negative control.

[10] = data not shown
[11] = tested on: P. aeruginosa FRD1 biofilm; assay: Biofilm inhibition assay (crystal violet); format: cell-based, Pseudomonas aeruginosa; conditions: P. aeruginosa FRD1, 6.25 μg/mL (0.5× MIC), 37°C 24 h, triplicate
Experimental: In vitro static biofilm models have been reported in many studies ([45][–][47]). A Pseudomonas aeruginosa mucoid strain, FRD1, isolated from a cystic fibrosis patient, was used for the biofilm inhibition and eradication assay. The FRD1 strain was shock cultured to logarithmic growth stage at 37°C and 150 × g. After cleaning using PBS and centrifuging thrice, the bacteria were resuspended in MHB medium (with 0.2% glucose) and gradient diluted to an OD600 value of ~0.01.
For the biofilm inhibition assay, 90-μL amounts of bacterial suspensions and 10-μL amounts of increasing concentrations of the peptide were added to a 96-well plate and coincubated at 37°C for 24 h. Then, bacterial biofilms were quantified as follows: (i) planktonic bacteria were removed by washing thrice using PBS, (ii) biofilm bacteria were fixed in 100 μL of 4% paraformaldehyde at room temperature for 15 min and (iii) stained with 100 μL of 0.1% crystal violet for 30 min, (iv) the dye was removed, followed by washing twice using PBS, adding 200 μL of 95% ethanol to each well to dissolve the crystal violet, and finally, (v) absorbance was measured at 590 nm using an EnSpire multimode plate reader (PerkinElmer, Singapore).

[12] = tested on: methicillin-resistant S. aureus standard strain USA300; assay: Neutropenic mouse thigh infection model; format: in vivo; conditions: neutropenic BALB/c mice, 300 μg i.p. at 2 h postinfection
Experimental: Female BALB/c mice were used to construct a neutropenic murine thigh infection model as previously published ([48][–][50]). Briefly, mice (n = 9/group) were rendered neutropenic by consecutive intraperitoneal injections of 150 and 100 mg/kg of body weight cyclophosphamide at 4 and 1 day before bacterial injection ([51]). An S. aureus USA300 inoculum (~1.5 × 10^6 CFU/mL) was prepared by diluting logarithmic phase bacteria with fresh MHB. Each mouse was infected by intramuscular injection of 0.1 mL of the inoculum (~1.5 × 10^5 CFU) into the right thigh muscles. At 2 h postinfection, 0.1 mL of lcCCL28-25 peptide (300 μg) or vancomycin hydrochloride (300 μg, 15 mg/kg) was administered by intraperitoneal injection. The control group was injected with an equal volume of PBS. Untreated control mice were sacrificed at the start of treatment to establish the baseline bacterial burden. Mice in the three treatment groups (PBS, vancomycin, and lcCCL28-25) were sacrificed at 48 h postinfection. Their right thighs were aseptically harvested, placed in sterile saline and homogenized using a Bioprep-6 homogenizer (Allsheng, Hangzhou, China). After being serially diluted to 1:10 in sterile saline, 100-μL amounts of tissue suspensions at various concentrations were plated on LB agar to determine bacterial counts after incubation at 37°C for 24 h.

SMILES | MIC (P. aeruginosa FRD1) [µg/mL] | MIC [1] [µg/mL] | MIC [2] [µg/mL] | MIC [3] [µg/mL] | MIC [4] [µg/mL] | MIC [5] [µg/mL] | MIC [6] [µg/mL] | MIC [7] [µg/mL] | MIC [8] [µg/mL] | MIC [9] [µg/mL] | SYTOX green fluorescence intensity (E. coli ATCC 25922) | solubility in 50% TFE solution [10] | reduction of biofilm formation [11] | reduction in average bacterial load in thighs versus control group ([12]; S. aureus USA300 i.m., 48 h postinfection) [log10 CFU/g] | mice that died after 48 h of infection ([12]; n = 9/group, three died in PBS group)
CSCC[C@H](NC(=O)[C@H](CCCNC(=N)N)NC(=O)[C@H](CCCCN)NC(=O)[C@H](CC(C)C)NC(=O)[C@H](CCCCN)NC(=O)[C@H](CCCNC(=N)N)NC(=O)[C@H](CCCCN)NC(=O)[C@@H](NC(=O)[C@H](CCCCN)NC(=O)[C@@H]1CCCN1C(=O)[C@H](Cc1c[nH]cn1)NC(=O)[C@H](C)N)C(C)C)C(=O)N[C@@H](CCC(N)=O)C(=O)N[C@@H](CCCNC(=N)N)C(=O)N[C@@H](CCCCN)C(=O)N[C@@H](CCCCN)C(=O)N[C@@H](CC(=O)O)C(=O)NCC(=O)N[C@@H](CCCCN)C(=O)N[C@@H](CCC(N)=O)C(=O)N[C@@H](CCCCN)C(=O)N[C@@H](CCCNC(=N)N)C(=O)N[C@@H](Cc1c[nH]cn1)C(=O)O [omCCL28-like-23] (H-AHPKVKRKLKRMQRKKDGKQKRH-OH; N-terminus and C-terminus assumed) | 25.00 (≈ 8.67 µM) | >50.00 | 12.50 (≈ 4.34 µM) | >50.00 | 25.00 (≈ 8.67 µM) | 12.50 (≈ 4.34 µM) | 12.50 (≈ 4.34 µM) | 25.00 (≈ 8.67 µM) | 25.00 (≈ 8.67 µM) | 12.50 (≈ 4.34 µM) | increased rapidly within 20 min | insoluble |  |  | 
CC[C@H](C)[C@H](NC(=O)[C@H](CCC(N)=O)NC(=O)[C@H](CCSC)NC(=O)[C@H](C)NC(=O)[C@@H](NC(=O)CNC(=O)[C@H](CC(C)C)NC(=O)[C@@H](NC(=O)[C@H](CCCCN)NC(=O)[C@H](CCCCN)NC(=O)[C@@H](NC(=O)[C@H](CCCNC(=N)N)NC(=O)[C@@H]1CCCN1C(=O)[C@H](CC(=O)O)NC(=O)[C@H](C)N)C(C)C)C(C)C)C(C)C)C(=O)N[C@@H](CCCNC(=N)N)C(=O)N[C@@H](CCCCN)C(=O)N[C@@H](C)C(=O)N[C@@H](CCC(N)=O)C(=O)N[C@@H](CC(C)C)C(=O)N[C@@H](CCSC)C(=O)N[C@@H](CCCNC(=N)N)C(=O)N[C@@H](CCC(=O)O)C(=O)N[C@@H](CCCCN)C(=O)N[C@@H](CC(C)C)C(=O)N[C@@H](CC(N)=O)C(=O)N[C@@H](CO)C(=O)N[C@H](C(=O)N[C@@H](CCSC)C(=O)N[C@@H](CCCNC(=N)N)C(=O)N[C@@H](CCCNC(=N)N)C(=O)O)[C@@H](C)CC [omCK11-31] (H-ADPRVKKVLGVAMQIRKAQLMREKLNSIMRR-OH; N-terminus and C-terminus assumed) | 12.50 (≈ 3.44 µM) | >50.00 | 12.50 (≈ 3.44 µM) | 25.00 (≈ 6.87 µM) | 25.00 (≈ 6.87 µM) | 12.50 (≈ 3.44 µM) | 12.50 (≈ 3.44 µM) | 12.50 (≈ 3.44 µM) | 12.50 (≈ 3.44 µM) | 12.50 (≈ 3.44 µM) | fluorescence trends similar to the trends in E. coli cells treated with lcCCL28-25 |  | ~ 45% |  | 
CN[C@H](CC(C)C)C(=O)N[C@H]1C(=O)N[C@@H](CC(N)=O)C(=O)N[C@H]2C(=O)N[C@H]3C(=O)N[C@H](C(=O)N[C@H](C(=O)O)c4cc(O)cc(O)c4-c4cc3ccc4O)[C@H](O)c3ccc(c(Cl)c3)Oc3cc2cc(c3O[C@@H]2O[C@H](CO)[C@@H](O)[C@H](O)[C@H]2O[C@H]2C[C@](C)(N)[C@H](O)[C@H](C)O2)Oc2ccc(cc2Cl)[C@H]1O [vancomycin, vancomycin hydrochloride, reference compound] |  |  |  |  |  |  |  |  |  |  |  |  |  | 1.30 | none
